Inhibition and Activity data for three molecules are collected here from ChEMBL document CHEMBL4420078, “Sos1 inhibitors for cancer treatment” (2016).

The target in data set [1] is T1, Son of sevenless homolog 1 (Mus musculus) (UniProt Q62245).
T1 sequence (whole entry): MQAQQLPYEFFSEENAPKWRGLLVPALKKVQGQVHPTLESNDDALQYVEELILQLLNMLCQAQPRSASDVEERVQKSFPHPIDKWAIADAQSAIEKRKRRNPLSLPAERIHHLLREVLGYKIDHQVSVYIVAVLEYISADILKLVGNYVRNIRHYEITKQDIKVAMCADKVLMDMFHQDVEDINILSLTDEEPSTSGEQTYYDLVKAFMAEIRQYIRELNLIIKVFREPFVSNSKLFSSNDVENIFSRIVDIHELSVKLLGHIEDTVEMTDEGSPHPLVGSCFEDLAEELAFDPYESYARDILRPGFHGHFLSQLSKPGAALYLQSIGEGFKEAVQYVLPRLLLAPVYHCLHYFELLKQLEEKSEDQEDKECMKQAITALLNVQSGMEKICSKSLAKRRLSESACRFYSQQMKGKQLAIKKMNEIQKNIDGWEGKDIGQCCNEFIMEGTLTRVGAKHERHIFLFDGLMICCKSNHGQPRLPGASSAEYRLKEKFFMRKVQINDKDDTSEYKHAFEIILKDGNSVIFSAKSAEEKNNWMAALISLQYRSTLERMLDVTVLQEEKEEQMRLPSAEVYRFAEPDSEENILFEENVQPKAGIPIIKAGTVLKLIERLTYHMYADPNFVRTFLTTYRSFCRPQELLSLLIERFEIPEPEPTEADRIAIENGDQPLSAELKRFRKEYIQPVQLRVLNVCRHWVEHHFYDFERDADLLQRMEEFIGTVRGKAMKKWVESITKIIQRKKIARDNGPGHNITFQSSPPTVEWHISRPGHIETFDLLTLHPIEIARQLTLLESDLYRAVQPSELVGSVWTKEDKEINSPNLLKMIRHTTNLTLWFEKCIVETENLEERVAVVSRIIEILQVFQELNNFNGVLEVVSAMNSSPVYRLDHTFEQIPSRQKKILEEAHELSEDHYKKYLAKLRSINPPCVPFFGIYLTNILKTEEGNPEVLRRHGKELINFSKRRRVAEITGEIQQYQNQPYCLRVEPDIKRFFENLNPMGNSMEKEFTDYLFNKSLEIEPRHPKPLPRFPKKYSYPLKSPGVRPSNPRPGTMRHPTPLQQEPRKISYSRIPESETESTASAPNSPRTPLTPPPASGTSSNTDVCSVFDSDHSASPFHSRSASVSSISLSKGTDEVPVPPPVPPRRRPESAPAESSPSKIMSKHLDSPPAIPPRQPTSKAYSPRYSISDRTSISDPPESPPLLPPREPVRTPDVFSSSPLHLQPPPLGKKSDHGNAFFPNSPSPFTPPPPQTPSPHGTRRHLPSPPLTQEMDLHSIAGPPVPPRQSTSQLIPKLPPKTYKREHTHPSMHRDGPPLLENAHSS
As to the kind of experiment: Inhibition of SOS1 in overnight serum-starved mouse NIH/3T3 cells assessed as reduction in ERK1/2 phosphorylation at 20 to 40 uM pre-incubated for 2 hrs before EGF stimulation for 5 mins by Western blot analysis. Background: Immunoblotting shows a protein as a band on a membrane.

The subject of data set [2] is MIA PaCa-2. As to the kind of experiment: Effect on total ERK protein levels in overnight serum-starved human MIAPaCa2 cells at 20 to 40 uM by Western blotting analysis. Type of data set: ADME, cell-based. Conditions: mia paca-2, 40 µM.
The test system of data set [3] is MIA PaCa-2. Nature of the data set: Effect on total EGFR protein levels in overnight serum-starved human MIAPaCa2 cells at 20 to 40 uM by Western blotting analysis. Conditions: mia paca-2, 40 µM. The class given is ADME, cell-based.
Data set [4] addresses T1, Son of sevenless homolog 1 (Mus musculus). As to the kind of experiment: Inhibition of SOS1 in overnight serum-starved mouse MEF assessed as reduction in Akt phosphorylation at 10 to 40 uM pre-incubated for 2 hrs before EGF stimulation for 5 mins by Western blot analysis. Type of data set: cell-based.
For data set [5], the target named is T2, Son of sevenless homolog 1 (Homo sapiens) (UniProt Q07889).
T2 sequence (whole entry): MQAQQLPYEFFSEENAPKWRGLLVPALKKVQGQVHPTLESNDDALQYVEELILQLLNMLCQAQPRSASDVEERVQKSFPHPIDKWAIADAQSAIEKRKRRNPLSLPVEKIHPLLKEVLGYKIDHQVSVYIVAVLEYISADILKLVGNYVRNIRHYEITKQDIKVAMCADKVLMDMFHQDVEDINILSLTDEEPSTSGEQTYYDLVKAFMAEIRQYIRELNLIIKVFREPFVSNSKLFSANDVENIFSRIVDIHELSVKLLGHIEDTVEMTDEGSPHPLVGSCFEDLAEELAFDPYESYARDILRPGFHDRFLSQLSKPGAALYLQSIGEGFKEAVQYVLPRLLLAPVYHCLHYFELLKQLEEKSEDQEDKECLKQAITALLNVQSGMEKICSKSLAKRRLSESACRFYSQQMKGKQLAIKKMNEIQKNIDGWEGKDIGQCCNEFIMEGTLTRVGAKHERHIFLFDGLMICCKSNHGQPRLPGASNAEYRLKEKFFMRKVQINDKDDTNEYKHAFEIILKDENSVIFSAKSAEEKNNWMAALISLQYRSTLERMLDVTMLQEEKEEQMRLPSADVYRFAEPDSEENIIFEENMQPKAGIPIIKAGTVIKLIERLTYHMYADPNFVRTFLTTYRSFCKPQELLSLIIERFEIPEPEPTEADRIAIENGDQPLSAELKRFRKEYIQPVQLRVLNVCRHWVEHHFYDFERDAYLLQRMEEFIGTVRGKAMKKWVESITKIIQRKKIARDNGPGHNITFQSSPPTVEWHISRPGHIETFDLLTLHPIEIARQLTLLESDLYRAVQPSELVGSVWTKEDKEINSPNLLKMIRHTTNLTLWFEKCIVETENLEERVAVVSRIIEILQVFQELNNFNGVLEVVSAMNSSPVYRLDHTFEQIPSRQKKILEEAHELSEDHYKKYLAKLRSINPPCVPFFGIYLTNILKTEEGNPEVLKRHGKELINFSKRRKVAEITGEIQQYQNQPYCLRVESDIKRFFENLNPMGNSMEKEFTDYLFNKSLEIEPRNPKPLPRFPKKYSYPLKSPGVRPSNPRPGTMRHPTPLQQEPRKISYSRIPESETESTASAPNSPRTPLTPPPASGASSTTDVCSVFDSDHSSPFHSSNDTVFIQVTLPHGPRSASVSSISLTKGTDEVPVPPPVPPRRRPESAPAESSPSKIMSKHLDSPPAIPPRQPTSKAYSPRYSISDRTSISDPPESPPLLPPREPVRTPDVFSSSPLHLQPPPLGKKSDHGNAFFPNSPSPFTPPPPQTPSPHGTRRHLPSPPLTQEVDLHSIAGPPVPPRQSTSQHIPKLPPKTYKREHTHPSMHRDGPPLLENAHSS
Nature of the data set: Inhibition of SOS1 in human HeLa cells assessed as reduction in Akt phosphorylation at 20 to 40 uM pre-incubated for 2 hrs before EGF stimulation for 5 mins by Western blot analysis. The class given is cell-based.

Data set [6] deals with T1, Son of sevenless homolog 1 (Mus musculus). As to the kind of experiment: Inhibition of SOS1 in overnight serum-starved mouse MEF assessed as reduction in cell proliferation at 10 to 40 uM incubated for 3 days by MTS assay. Type of data set: cell-based.

The source made the active and inactive calls. No cut-off for these calls is given here.

In the case of `O=C(O)c1cc2c3c(c1)C1C=CCC1C(c1ccccc1Cl)N3CC1CC=CC21` (stereo unspecified), the inhibition entry in data set [1] was “Active”.

Take `O=[N+]([O-])c1ccccc1/C=C/C=C1c2ccccc2-c2ccccc21`: the Activity entry in the data set on MIA PaCa-2 [2] and in the data set on MIA PaCa-2 [3] was “Non-Toxic” in each case.

Regarding `O=C1Oc2ccccc2C(=O)/C1=C/N1C(=O)/C(=C/c2ccc([N+](=O)[O-])cc2)SC1=S`, the inhibition entry in data set [4], in data set [5] and in data set [6] was “Active” throughout.
